Laboratory results taken from ChEMBL document CHEMBL4715783, “Insights into tyrosinase inhibition by compounds isolated from Greyia radlkoferi Szyszyl using biological activity, molecular docking and gene expression analysis” (Bioorg Med Chem, 2016).
Converted amounts (≈) assume the structure as drawn. The source made the active and inactive calls. The rule behind the calls is not given here.

Key:
[1] = molecular target: T1, Mushroom tyrosinase (Agaricus bisporus, UniProt O42713+Q00024+C7FF04+C7FF05); test: Inhibition of monophenolase activity of mushroom tyrosinase using L-Tyrosine substrate incubated for 10 mins followed by substrate addition and measured for 15 mins
[2] = system: B16-F10; test: Cytotoxicity against mouse B16-F10 cells assessed as reduction in cell viability incubated for 72 hrs by XTT assay; assay type: cell-based; details: B16-F10, 72 h
[3] = system: B16-F10; test: Inhibition of melanin production in mouse B16-F10 cells at 6.25 ug/ml relative to control; assay type: functional
[4] = molecular target: T1, Mushroom tyrosinase; test: Inhibition of monophenolase activity of mushroom tyrosinase using L-Tyrosine substrate incubated for 5 mins followed by substrate addition and measured for 30 mins by colorimetry
[5] = system: B16-F10; test: Inhibition of melanin production in mouse B16-F10 cells at 12.5 to 25 ug/ml relative to control; assay type: functional; details: dose 12.5-25 µg/ml
[6] = molecular target: T2, Mushroom tyrosinase (Agaricus bisporus) (UniProt O42713+Q00024+C7FF04+C7FF05); test: Inhibition of monophenolase activity of mushroom tyrosinase at 100 uM relative to control
[7] = system: B16-F10; test: Inhibition of melanin production in mouse B16-F10 cells at 100 ug/ml relative to control; assay type: functional
[8] = system: B16-F1; test: Inhibition of melanin production in C57BL/6J mouse B16-F1 cells incubated for 5 days; assay type: functional, cell-based; details: B16-F1, 120 h
[9] = molecular target: T1, Mushroom tyrosinase; test: Inhibition of monophenolase activity of mushroom tyrosinase using L-Tyrosine substrate incubated for 10 mins followed by substrate addition and measured for 20 mins
[10] = system: B16-F10; test: Inhibition of melanin production in mouse B16-F10 cells at 25 ug/ml relative to control; assay type: functional
[11] = molecular target: T1, Mushroom tyrosinase; test: Inhibition of diphenolase activity of mushroom tyrosinase assessed as reduction in dopachrome formation using L-DOPA substrate incubated for 30 mins
[12] = molecular target: T2, Mushroom tyrosinase (Agaricus bisporus); test: Inhibition of monophenolase activity of mushroom tyrosinase assessed as reduction in dopachrome formation using L-Tyrosine substrate incubated for 30 mins by spectrophotometry relative to control
[13] = Solubility of compound in water at >[…] uM; assay type: physicochemical; details: buffer; dose >50 µM
[14] = system: B16-F10; test: Inhibition of melanin production in mouse B16-F10 cells at 12.5 ug/ml relative to control; assay type: functional
[15] = molecular target: T1, Mushroom tyrosinase; test: Inhibition of monophenolase activity of mushroom tyrosinase using L-Tyrosine substrate incubated for 30 mins by spectrophotometry
[16] = system: B16-F10; test: Inhibition of melanin production in mouse B16-F10 cells at 21.42 ug/ml relative to control; assay type: functional, cell-based; details: dose 21.42 µg/ml
[17] = cells; details: Mus musculus, B16-BL6, 120 h
Description: Cytotoxicity against mouse B16-BL6 cells assessed as reduction in cell viability incubated for 5 days by MTT assay

[18] = molecular target: T1, Mushroom tyrosinase; test: Inhibition of monophenolase activity of mushroom tyrosinase
[19] = Inhibition of monophenolase activity of tyrosinase in C57BL/6 mouse melan-a cells incubated for 72 hrs by bradford method

O=C(/C=C/c1ccc(O)cc1O)c1ccc(O)cc1O
IC50 [1]: 0.06 µM

COc1cc(O)c(C(=O)CCc2ccccc2)c(O)c1
IC50 [2]: 373 µM
inhibition at 6.25 µg/mL [3]: 10%
IC50 [4]: > 200 µM

O=C(CCc1ccccc1)c1c(O)cc(O)cc1O
IC50 [2]: 219 µM
IC50 [4]: 68.48 µM
inhibition (INH) [5]: 25%

O=C1C[C@@H](c2ccc(O)cc2)Oc2cc(O)cc(O)c21
inhibition [6]: 2.8%

OC[C@H]1O[C@@H](Oc2ccc(O)cc2)[C@H](O)[C@@H](O)[C@@H]1O [ARBUTIN]
IC50 [2]: 391 µM
inhibition at 100 µg/mL [7]: 78%
IC50 [8]: 122 µM

Cc1c(O)c(C)c2c(c1O)C(=O)C[C@@H](c1ccccc1)O2 [DEMETHOXYMATTEUCINOL]
IC50 [9]: 97.6 µM

O=c1c(O)c(-c2ccccc2)oc2cc(O)cc(O)c12 [GALANGIN]
IC50 [2]: > 200 µM
inhibition at 25 µg/mL [10]: 40%
IC50 [11]: 101 µM
inhibition [12]: 20%
IC50 [4]: 420.37 µM
solubility [13]: Insoluble
inhibition at 12.5 µg/mL [14]: 30%

O=c1c(-c2ccc(O)cc2)coc2cc(O)cc(O)c12 [GENISTEIN]
IC50 [2]: 79.2 µM
IC50 [15]: 822 µM
inhibition [16]: inactive
IC50 [17]: 4.18 µg/mL (≈ 15.5 µM)
IC50 [4]: > 200 µM

CC(C)=CCc1c(O)cc(O)c2c1O[C@H](c1ccccc1)CC2=O [GLABRANIN]
IC50 [9]: 80.6 µM

CC(C)=CCc1c(O)ccc(C(=O)/C=C/c2ccc(O)cc2O)c1O [MORACHALCONE A]
IC50 [18]: 0.14 µM

COc1cc(O)c(C(=O)[C@@H]2[C@H](CC=C(C)C)C(C)=CC[C@H]2c2ccccc2)c(O)c1 [PANDURATIN A]
IC50 [19]: 8.2 µM

O=C1C[C@@H](c2ccccc2)Oc2cc(O)cc(O)c21 [PINOCEMBRIN]
IC50 [2]: 30.1 µM
IC50 [4]: > 200 µM
inhibition at 12.5 µg/mL [14]: 8%
